Laboratory results reported in US11022604B2, “Dock derived compound against laminin receptor (37 LR) and uses thereof” (Purdue Research Foundation, priority 2017, dated 2021).
Where two headings read alike, the source gives them in different places.

Assays:
[1] = test system: PC-3 cells; test: BrdU incorporation assay; type: cell-based; conditions: read-out: IC50, inhibition of BrdU incorporation (proliferation)
Procedure: PC-3 cells were treated with 100 nM to 100 μM C3 for 24 hours and BrdU incorporation was quantified using HRP generated luminescence from an antibody pair recognizing BrdU (n=6, mean±SEM). C3 BrdU signal was normalized to a row where PC-3 cells were exposed to 0.5% DMSO (assay conditions). Curve obtained using GraphPAd Prism as described in the methods.
(§1) Cell Viability Screen. PC-3, Endo, TC2-Ras, SH-SY5Y, and LNCaP cells were seeded in 96-well plates at 1,500 cells per well using the Scepter cell counter (EMD Millipore). Cells were continuously incubated with compound using a 6-point dose curve: 100, 57.5, 32.4, 18.6, 10.5, and 6.0 μM in their respective complete media. Cell viability was measured by using the cell counting kit-8 (CCK-8, Dojindo). […] CCK-8 absorbance was measured at 450 nm using a GloMax Multimode Reader (Promega). Readings were performed the day after seeding to normalize for variations in cell seeding and after 96 hours of compound treatment. After each reading, CCK-8 media was removed and replaced with media containing compound as described previously. […] As described previously, an initial baseline CCK-8 reading was performed at 24 hours post seeding to correct for variations in seeding density. First, 450 nm values for each well were subtracted from media only readings to correct for baseline absorbance. […]

[2] = biological target: T1, Peptide G (37 LR binding site for laminin, aa 161-180) (Homo sapiens, UniProt P08865); test: Intrinsic tryptophan fluorescence binding assay, Peptide G; conditions: 50 μM Peptide G, titration 0.1 to 100 μM; read-out: EC50, reduction of intrinsic tryptophan fluorescence
T1 construct: purchased United Biosystems; host or cells: chemical synthesis
T1 sequence (P08865 161-180 limits assumed): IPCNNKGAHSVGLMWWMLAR
Procedure: FIG. 4. Reduction of Tryptophan Fluorescence by C3. 50 μM peptide G or Scramble G was incubated with concentrations of C3 ranging from 100 nM to 100 μM. Intrinsic tryptophan fluorescence was quantified at 350 nm emission (270 nm excitation) and graphed as a function of C3 dose after subtracting baseline C3 fluorescence. GraphPad Prism was used to determine an ECso for tryptophan reduction as described in the method (n=3±SEM).
as §1, with “Cells were continuously incubated with compound using a 6-point dose curve: 100, 57.5, 32.4, 18.6, 10.5, and 6.0 μM in their respective complete media.” left out, “absorbance. Then, the 96 hour readings were normalized to their respective 24 hour readings to control for seeding variation.” for “absorbance.”

**Q.** How did the IC50 ([1]; 24 hours) turn out when `O=C(c1cc(F)cc2c1OCOC2)N1CCN(C2c3ccccc3-c3ccccc32)CC1` [Compound C3, [4-(9h-fluoren-9-yl)piperazino](6-fluoro-4h-1,3-benzodioxin-8-yl)methanone] was run?
**A.** The IC50 was 10 µM.

**Q.** And the IC50 ([1]; Homo sapiens, PC-3, 24 h)?
**A.** Its IC50 is 10.1 µM.

**Q.** And the EC50 [2]?
**A.** The EC50 was 16.1 µM.
